Data taken from ChEMBL document CHEMBL1201862, “PubChem BioAssay data set” (2004).
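Following 48 hours of exposure in 96-well plates, responses at five concentrations were used to interpolate endpoints linearly. GI50 is the concentration that inhibits growth by half.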 Active and inactive are the calls of the source. No stated cut-off is given here; in the data, active = GI50 up to about 1.1 µM and inactive = higher.

What was measured:
Test in all cases: DTP human tumour cell line panel, 48 h
Malme-3M = tested on: Malme-3M
IGROV-1 = tested on: IGROV-1
CCRF-CEM = tested on: CCRF-CEM
786-0 = tested on: 786-0
SW-620 = tested on: SW-620
HCC 2998 = tested on: HCC 2998
MDA-MB-231 = tested on: MDA-MB-231
RXF 393 = tested on: RXF 393
MDA-MB-435 = tested on: MDA-MB-435
U-251 = tested on: U-251
NCI-H460 = tested on: NCI-H460
LOX IMVI = tested on: LOX IMVI
RPMI-8226 = tested on: RPMI-8226
UO-31 = tested on: UO-31
SNB-75 = tested on: SNB-75
OVCAR-8 = tested on: OVCAR-8
OVCAR-4 = tested on: OVCAR-4
Hs-578T = tested on: Hs-578T
HL-60 = tested on: HL-60
SF-539 = tested on: SF-539

| SMILES | GI50 (Malme-3M) | GI50 (IGROV-1) | GI50 (CCRF-CEM) | GI50 (786-0) | GI50 (SW-620) | GI50 (HCC 2998) | GI50 (MDA-MB-231) | GI50 (RXF 393) | GI50 (MDA-MB-435) | GI50 (U-251) | GI50 (NCI-H460) | GI50 (LOX IMVI) | GI50 (RPMI-8226) | GI50 (UO-31) | GI50 (SNB-75) | GI50 (OVCAR-8) | GI50 (OVCAR-4) | GI50 (Hs-578T) | GI50 (HL-60) | GI50 (SF-539) |
| --- | --- | --- | --- | --- | --- | --- | --- | --- | --- | --- | --- | --- | --- | --- | --- | --- | --- | --- | --- | --- |
| O=C(O)Cc1ccc2c(c1)/C(=C1/Nc3ccccc3C1=O)C(=O)N2 | 27.4 µM (inactive) | 0.355 µM (active) | 34.4 µM (inactive) | 27.5 µM (inactive) | 46.2 µM (inactive) | 36.5 µM (inactive) | > 100 µM (inactive) | 17.2 µM (inactive) | 36.1 µM (inactive) | 39.6 µM (inactive) | 56.2 µM (inactive) | 20 µM (inactive) | 27.9 µM (inactive) | 49 µM (inactive) | 26.1 µM (inactive) | 32 µM (inactive) | 21.9 µM (inactive) | 27.8 µM (inactive) | – | – |
| O=C(OCN1C(=O)C2C3C=CC(C2C1=O)C1C2C(=O)N(COC(=O)C4CCCN4)C(=O)C2C31)C1CCCN1 (centres undefined) | > 100 µM (inactive) | > 91 µM (inactive) | 21.8 µM (inactive) | 35.6 µM (inactive) | 30.2 µM (inactive) | > 100 µM (inactive) | – | > 76.6 µM (inactive) | – | > 45.8 µM (inactive) | 22.6 µM (inactive) | 35.9 µM (inactive) | 24.8 µM (inactive) | > 100 µM (inactive) | > 82.6 µM (inactive) | 25.5 µM (inactive) | > 58.3 µM (inactive) | – | 22.1 µM (inactive) | 47.8 µM (inactive) |
| CCCCNC(=S)N/C=C1\C(=O)Nc2ccccc2C1=O | > 10 µM (inactive) | > 10 µM (inactive) | > 10 µM (inactive) | > 10 µM (inactive) | > 10 µM (inactive) | > 10 µM (inactive) | > 10 µM (inactive) | > 10 µM (inactive) | > 10 µM (inactive) | > 10 µM (inactive) | > 10 µM (inactive) | – | > 10 µM (inactive) | > 10 µM (inactive) | – | > 10 µM (inactive) | > 10 µM (inactive) | – | > 10 µM (inactive) | > 10 µM (inactive) |
| O=c1[nH]c2nccn2c2c1SCCN2 | > 100 µM (inactive) | > 100 µM (inactive) | > 100 µM (inactive) | > 100 µM (inactive) | > 100 µM (inactive) | > 100 µM (inactive) | – | > 100 µM (inactive) | > 100 µM (inactive) | > 100 µM (inactive) | > 100 µM (inactive) | > 100 µM (inactive) | > 100 µM (inactive) | – | > 100 µM (inactive) | > 100 µM (inactive) | > 100 µM (inactive) | > 100 µM (inactive) | > 100 µM (inactive) | > 100 µM (inactive) |
| CON(C)C(=O)[C@H]1C[C@@]1(C)CO | > 100 µM (inactive) | > 100 µM (inactive) | > 100 µM (inactive) | > 100 µM (inactive) | > 100 µM (inactive) | > 100 µM (inactive) | > 100 µM (inactive) | > 100 µM (inactive) | > 100 µM (inactive) | > 100 µM (inactive) | > 100 µM (inactive) | – | – | > 100 µM (inactive) | > 100 µM (inactive) | > 100 µM (inactive) | > 100 µM (inactive) | > 100 µM (inactive) | – | – |
| Cc1csc2nc3[nH]ncc3c(=O)n12 | > 100 µM (inactive) | > 100 µM (inactive) | > 100 µM (inactive) | > 100 µM (inactive) | > 100 µM (inactive) | > 100 µM (inactive) | > 100 µM (inactive) | – | > 100 µM (inactive) | > 100 µM (inactive) | > 100 µM (inactive) | > 100 µM (inactive) | > 100 µM (inactive) | 81.8 µM (inactive) | 61 µM (inactive) | > 100 µM (inactive) | > 100 µM (inactive) | 28.4 µM (inactive) | – | > 100 µM (inactive) |
| CON(C)C(=O)C(C)NC(=O)OC(C)(C)C (centres undefined) | > 100 µM (inactive) | > 100 µM (inactive) | > 100 µM (inactive) | > 100 µM (inactive) | > 100 µM (inactive) | > 100 µM (inactive) | – | > 100 µM (inactive) | > 100 µM (inactive) | > 100 µM (inactive) | > 100 µM (inactive) | – | > 100 µM (inactive) | > 100 µM (inactive) | > 100 µM (inactive) | > 100 µM (inactive) | – | > 100 µM (inactive) | > 100 µM (inactive) | > 100 µM (inactive) |
| C=C(C(=O)OC)[C@@H]1C[C@@H](OC(C)=O)C2=C[C@H](C[C@@]3(C)O[C@@H]3C3=CC(C)=C(O3)[C@H]1OC(C)=O)OC2=O [BIPINNATIN I] | 13.3 µM (inactive) | 15.3 µM (inactive) | 0.0429 µM (active) | 14.7 µM (inactive) | 4.71 µM (inactive) | 20.4 µM (inactive) | 20.9 µM (inactive) | 12 µM (inactive) | 16.8 µM (inactive) | 23.1 µM (inactive) | 23.6 µM (inactive) | 16.3 µM (inactive) | 5.75 µM (inactive) | 16 µM (inactive) | 26.1 µM (inactive) | 17.3 µM (inactive) | 35.2 µM (inactive) | – | – | 31.4 µM (inactive) |
